Data: US12239643B2, “Therapeutic agent for inflammatory diseases, autoimmune diseases, fibrotic diseases, and cancer diseases” (MEIJI SEIKA PHARMA CO., LTD., priority 2018, dated 2025)

System: PDE4
Assay: Evaluation of PDE4 inhibitory activity, scintillation proximity assay
Format: biochemical
Details: scintillation proximity assay; class symbols of Evaluation 1; read-out: PDE4 Inhibitory Activity (concentration for the inhibition rate of 50%, IC50), Evaluation 1
Outline: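 SPA with [2,8-3H]-cAMP and diluted PDE4 enzyme preparation in 50 mM Tris-HCl pH 7.4, 8.3 mM MgCl2, 1.7 mM EGTA, 3 mg/mL BSA, 120 min at room temperature. Product captured on ZnSO4-containing YSi-SPA beads, scintillation counted; IC50 from inhibition curves vs DMSO control and no-enzyme blank.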

Compared with `CCOC(=O)c1cc(-n2cccn2)c2oc(N3CC4COCC(C3)N4)nc2c1` [Example 92, Ethyl 2-(3-oxa-7,9-diazabicyclo[3.3.1]nonan-7-yl)-7-(1H-pyrazol-1-yl)benzo[d]oxazole-5-carboxylate], `CCOC(=O)c1cc(-c2nccs2)c2oc(N3CC4COCC(C3)N4)nc2c1` [Example 88, Ethyl 2-(3-oxa-7,9-diazabicyclo[3.3.1]nonan-7-yl)-7-(thiazol-2-yl)benzo[d]oxazole-5-carboxylate] is lower in IC50: greater than 1000 nM for the first, 100 to 1000 nM for the second.

`N#CCOC(c1cc(-c2nccs2)c2oc(N3CC4CC(C3)N4)nc2c1)C(F)(F)F` (centres unmarked) [Example 152, 2-(1-(2-(3,6-Diazabicyclo[3.1.1]heptan-3-yl)-7-(thiazol-2-yl)benzo[d]oxazol-5-yl)-2,2,2-trifluoroethoxy)acetonitrile] and `COC(c1cc(-c2nccs2)c2oc(N3CC4CCC(C3)N4)nc2c1)C(F)(F)F` (centres unmarked) [Example 142, 2-(3,8-Diazabicyclo[3.2.1]octan-3-yl)-7-(thiazol-2-yl)-5-(2,2,2-trifluoro-1-methoxyethyl)benzo[d]oxazole] cannot be ordered by IC50: less than 100 nM for the first, less than 100 nM for the second.

Compared with `FC(F)(F)c1c(Cl)cc(-n2cccn2)c2oc(N3CC4CCCC(C3)N4)nc12` [Example 16, 2-(3,9-Diazabicyclo[3.3.1]nonan-3-yl)-5-chloro-7-(1H-pyrazol-1-yl)-4-(trifluoromethyl)benzo[d]oxazole], `FC(F)(F)c1c(Cl)cc(-c2ccccn2)c2oc(N3CC4COCC(C3)N4)nc12` [Example 14, 7-(5-Chloro-7-(pyridin-2-yl)-4-(trifluoromethyl)benzo[d]oxazol-2-yl)-3-oxa-7,9-diazabicyclo[3.3.1]nonane] is higher in IC50: less than 100 nM for the first, 100 to 1000 nM for the second. The first is the more potent here.

`c1csc(-c2ccc(OC3CCOC3)c3nc(N4CC5CCC(C4)N5)oc23)n1` (centres unmarked) [Example 84, 2-(3,8-Diazabicyclo[3.2.1]octan-3-yl)-4-((tetrahydrofuran-3-yl)oxy)-7-(thiazol-2-yl)benzo[d]oxazole] and `c1csc(-c2cc(OCC3COC3)cc3nc(N4CC5CCC(C4)N5)oc23)n1` [Example 70, 2-(3,8-Diazabicyclo[3.2.1]octan-3-yl)-5-(oxetan-3-ylmethoxy)-7-(thiazol-2-yl)benzo[d]oxazole] cannot be ordered by IC50: less than 100 nM for the first, less than 100 nM for the second.

`C[S+]([O-])c1cc(-c2nccs2)c2oc(N3CC4CCCC(C3)N4)nc2c1` (centres unmarked) [Example 44, 2-(3,9-Diazabicyclo[3.3.1]nonan-3-yl)-5-(methylsulfinyl)-7-(thiazol-2-yl)benzo[d]oxazole] and `NS(=O)(=O)c1cc(-c2nccs2)c2oc(N3CC4CCCC(C3)N4)nc2c1` [Example 59, 2-(3,9-Diazabicyclo[3.3.1]nonan-3-yl)-7-(thiazol-2-yl)benzo[d]oxazole-5-sulfonamide] cannot be ordered by IC50: less than 100 nM for the first, less than 100 nM for the second.

`OC(c1cc(-c2nccs2)c2oc(N3CC4CCCC(C3)N4)nc2c1)C(F)(F)F` (centres unmarked) [Example 136, 1-(2-(3,9-Diazabicyclo[3.3.1]nonan-3-yl)-7-(thiazol-2-yl)benzo[d]oxazol-5-yl)-2,2,2-trifluoroethan-1-ol] and `CC(O)(c1cc(-c2nccs2)c2oc(N3CC4CCC(C3)N4)nc2c1)C(F)(F)F` (centres unmarked) [Example 159, 2-(2-(3,8-Diazabicyclo[3.2.1]octan-3-yl)-7-(thiazol-2-yl)benzo[d]oxazol-5-yl)-1,1,1-trifluoropropan-2-ol] cannot be ordered by IC50: less than 100 nM for the first, less than 100 nM for the second.

`COC(c1cc(-c2nccs2)c2oc(N3CC4CCC(C3)N4)nc2c1)C(F)F` (centres unmarked) [Example 105, 2-(3,8-Diazabicyclo[3.2.1]octan-3-yl)-5-(2,2-difluoro-1-methoxyethyl)-7-(thiazol-2-yl)benzo[d]oxazole] and `CSc1cc(-c2nccs2)c2oc(N3CC4CCC(C3)N4)nc2c1` [Example 39, 2-(3,8-Diazabicyclo[3.2.1]octan-3-yl)-5-(methylthio)-7-(thiazol-2-yl)benzo[d]oxazole] cannot be ordered by IC50: less than 100 nM for the first, less than 100 nM for the second.

`CC(C)(O)c1cc(-c2nccs2)c2oc(N3CC4CCC(C3)N4)nc2c1` [Example 172, 2-(2-(3,8-Diazabicyclo[3.2.1]octan-3-yl)-7-(thiazol-2-yl)benzo[d]oxazol-5-yl)propan-2-ol] and `COC(C)(C)c1cc(-c2nccs2)c2oc(N3CC4CCC(C3)N4)nc2c1` [Example 175, 2-(3,8-Diazabicyclo[3.2.1]octan-3-yl)-5-(2-methoxypropan-2-yl)-7-(thiazol-2-yl)benzo[d]oxazole] cannot be ordered by IC50: less than 100 nM for the first, less than 100 nM for the second.

First: NS(=O)(=O)c1cc(-c2nccs2)c2oc(N3CC4CC(C3)N4)nc2c1 [Example 58, 2-(3,6-Diazabicyclo[3.1.1]heptan-3-yl)-7-(thiazol-2-yl)benzo[d]oxazole-5-sulfonamide]
Second: CC(O)c1cc(-c2nccs2)c2oc(N3CC4CC(C3)N4)nc2c1 (centres unmarked) [Example 107, 1-(2-(3,6-Diazabicyclo[3.1.1]heptan-3-yl)-7-(thiazol-2-yl)benzo[d]oxazol-5-yl)ethan-1-ol]
The IC50 of the first is lower: less than 100 nM for the first, 100 to 1000 nM for the second.

Compound `c1csc(-c2cc(CN3CCOCC3)cc3nc(N4CC5CCC(C4)N5)oc23)n1` [Example 168, 2-(3,8-Diazabicyclo[3.2.1]octan-3-yl)-5-(morpholinomethyl)-7-(thiazol-2-yl)benzo[d]oxazole] has an IC50 of less than 100 nM.

Same assay, conditions: scintillation proximity assay; read-out: PDE4 Inhibitory Activity (Evaluation 1; concentration for the inhibition rate of 50%)

`CN(CCO)C(=O)c1cc(-c2nccs2)c2oc(N3CC4CCC(C3)N4)nc2c1OC(F)(F)F` [Example 193, 2-(3,8-Diazabicyclo[3.2.1]octan-3-yl)-N-(2-hydroxyethyl)-N-methyl-7-(thiazol-2-yl)-4-(trifluoromethoxy)benzo[d]oxazole-5-carboxamide] and `CC(C)C(O)c1cc(-c2nccs2)c2oc(N3CC4CCC(C3)N4)nc2c1OC(F)(F)F` (centres unmarked) [Example 205, 1-(2-(3,8-Diazabicyclo[3.2.1]octan-3-yl)-7-(thiazol-2-yl)-4-(trifluoromethoxy)benzo[d]oxazol-5-yl)-2-methylpropan-1-ol] cannot be ordered by IC50: less than 100 nM for the first, less than 100 nM for the second.

`CC(C)(CO)Oc1ccc(-c2nccs2)c2oc(N3CC4CC(C3)N4)nc12` [Example 268, 2-((2-(3,6-Diazabicyclo[3.1.1]heptan-3-yl)-7-(thiazol-2-yl)benzo[d]oxazol-4-yl)oxy)-2-methylpropan-1-ol] and `C[C@H](O)COc1ccc(-c2nccs2)c2oc(N3CC4CC(C3)N4)nc12` [Example 260, (2S)-1-((2-(3,6-diazabicyclo[3.1.1]heptan-3-yl)-7-(thiazol-2-yl)benzo[d]oxazol-4-yl)oxy)propan-2-ol] cannot be ordered by IC50: less than 100 nM for the first, less than 100 nM for the second.

`COC(C)(C)c1cc(-c2cscn2)c2oc(N3CC4CCC(C3)N4)nc2c1OC(F)(F)F` [Example 298, 2-(3,8-Diazabicyclo[3.2.1]octan-3-yl)-5-(2-methoxypropan-2-yl)-7-(thiazol-4-yl)-4-(trifluoromethoxy)benzo[d]oxazole] and `OCC(F)(F)Oc1ccc(-c2cscn2)c2oc(N3CC4CCC(C3)N4)nc12` [Example 312, 2-((2-(3,8-Diazabicyclo[3.2.1]octan-3-yl)-7-(thiazol-4-yl)benzo[d]oxazol-4-yl)oxy)-2,2-difluoroethan-1-ol] cannot be ordered by IC50: less than 100 nM for the first, less than 100 nM for the second.

`O=S1(=O)CCC(Oc2ccc(-c3nccs3)c3oc(N4CC5CC(C4)N5)nc23)CC1` [Example 314, 4-((2-(3,6-Diazabicyclo[3.1.1]heptan-3-yl)-7-(thiazol-2-yl)benzo[d]oxazol-4-yl)oxy)tetrahydro-2H-thiopyran 1,1-dioxide] and `CC(O)(c1ccc(-c2nccs2)c2oc(N3CC4CC(C3)N4)nc12)C(F)(F)F` (centres unmarked) [Example 270, 2-(2-(3,6-Diazabicyclo[3.1.1]heptan-3-yl)-7-(thiazol-2-yl)benzo[d]oxazol-4-yl)-1,1,1-trifluoropropan-2-ol] cannot be ordered by IC50: less than 100 nM for the first, less than 100 nM for the second.

`CC(O)(c1ccc(-c2nccs2)c2oc(N3CC4CC(C3)N4)nc12)C(F)(F)F` (centres unmarked) [Example 271, 2-(2-(3,6-Diazabicyclo[3.1.1]heptan-3-yl)-7-(thiazol-2-yl)benzo[d]oxazol-4-yl)-1,1,1-trifluoropropan-2-ol] and `CC(O)C(F)(F)OC(c1ccc(-c2nccs2)c2oc(N3CC4CC(C3)N4)nc12)C(F)(F)F` (centres unmarked) [Example 265, 1-(1-(2-(3,6-Diazabicyclo[3.1.1]heptan-3-yl)-7-(thiazol-2-yl)benzo[d]oxazol-4-yl)-2,2,2-trifluoroethoxy)-1,1-difluoropropan-2-ol] cannot be ordered by IC50: less than 100 nM for the first, less than 100 nM for the second.

`O=C(O)COC(c1ccc(-c2nccs2)c2oc(N3CC4CC(C3)N4)nc12)C(F)(F)F` (centres unmarked) [Example 253, 2-(1-(2-(3,6-Diazabicyclo[3.1.1]heptan-3-yl)-7-(thiazol-2-yl)benzo[d]oxazol-4-yl)-2,2,2-trifluoroethoxy)acetic acid] and `OCCOC(c1ccc(-c2nccs2)c2oc(N3CC4CCC(C3)N4)nc12)C(F)(F)F` (centres unmarked) [Example 225, 2-(1-(2-(3,8-Diazabicyclo[3.2.1]octan-3-yl)-7-(thiazol-2-yl)benzo[d]oxazol-4-yl)-2,2,2-trifluoroethoxy)ethan-1-ol] cannot be ordered by IC50: less than 100 nM for the first, less than 100 nM for the second.

`COC(c1ccc(-c2nccs2)c2oc(N3CC4CCC(C3)N4)nc12)C(F)(F)F` (centres unmarked) [Example 222, 2-(3,8-Diazabicyclo[3.2.1]octan-3-yl)-7-(thiazol-2-yl)-4-(2,2,2-trifluoro-1-methoxyethyl)benzo[d]oxazole] and `OC(c1cc(-c2nccs2)c2oc(N3CC4CC(C3)N4)nc2c1OC(F)(F)F)C(F)F` (centres unmarked) [Example 292, 1-(2-(3,6-Diazabicyclo[3.1.1]heptan-3-yl)-7-(thiazol-2-yl)-4-(trifluoromethoxy)benzo[d]oxazol-5-yl)-2,2-difluoroethan-1-ol] cannot be ordered by IC50: less than 100 nM for the first, less than 100 nM for the second.

Compared with `OCC(F)(F)Oc1ccc(-c2cscn2)c2oc(N3CC4CC(C3)N4)nc12` [Example 311, 2-((2-(3,6-Diazabicyclo[3.1.1]heptan-3-yl)-7-(thiazol-4-yl)benzo[d]oxazol-4-yl)oxy)-2,2-difluoroethan-1-ol], `CC(O)c1cc(-c2nccs2)c2oc(N3CC4CCC(C3)N4O)nc2c1C(F)(F)F` (centres unmarked) [Example 384, 3-(5-(1-Hydroxyethyl)-7-(thiazol-2-yl)-4-(trifluoromethyl)benzo[d]oxazol-2-yl)-3,8-diazabicyclo[3.2.1]octan-8-ol] is higher in IC50: less than 100 nM for the first, greater than 1000 nM for the second.
